Read-outs that look alike come from different tables or passages of the source.

Data set [1] has as its system calf thymus DNA. Briefly: Spectroscopic properties (absorption, emission, lifetime) on binding to calf thymus DNA. The conditions noted are these: for Emission Enchantment (I/Io): 7 μM Ru, 40:1 nucleotide/metal, 20° C. As to the method: Instrumentation: NMR spectra were recorded on a Varian VXR-300MHz spectormeter. FABS were performed using a VG Analytical 7070EQ Mas Spectrometer (78), and elemental analyses were done by Galbraith Laboratories in Nashville, Tenn. UV-Visible absorbance spectal were recorded on a Varian CARY-219 absorbance spectorphotometer. Extinction coefficients for the compounds were determined versus ruthenium concentrations obtained by atomic absorption spectroscopy with known ruthenium standards. [Ru(bpy)3 ]Cl2 solutions were also employed for these determinations as an internal standard. A varian AA-875 atomic absorption spectrophotometer was used for these determinations.
Emission spectra were measured on a Perkin-Elmer LS-5 fluorescence spectrometer. The samples were excited at their corresponding isosbestic points. All the measurements were made at 20° C. in a thermostatted cuvette holder with 3 nm entrance slit and 10 nm exit slit. Ruthenium solutions employed were 7 μM in concentration and claf thymus DNA was added to a ration of 40:1 nucleotide/metal; ruthenuim-DNA soltuions were allowed to incubate for 15 minutes before enhanced spectra were recorded. The emission enhancement factors were measured by comparing the intensitites at the emission spectral mixima in the absence ad presence of DNA, under similar conditions.
The limunescence lifetime measurements were done on a PRA SPC (single photon countining) spectometer with some minor modifications. The samples were excited with a nitrogen filled tnynratron gated flash lamp and the data were collected using a Tracor Northern 1710 multichannel analyser. The data were then transferred to a PDP-11/03 computer and deconvoluted with PRA software. […] concentrated solution of DNA (5mM DNA-phosphate) in buffer was added to a solution of the metal complex (4 μM) in buffer and allowed to equilibrate. Lifetimes of the samples were measured 0.5 hr after the metal complexes were mixed with DNA. All measurements were made at 20° C. and under air saturated conditions.
Furthermore, for all the complexes, this electronic transition is perturbed on binding to DNA.

The test system of data set [2] is B-form DNA. The conditions noted are these: cited from earlier work.
In data set [3] the test system is calf thymus DNA. Briefly: Equilibrium dialysis of racemic complexes against calf thymus DNA (Scatchard, dialysate CD). Type of data set: binding. Set-up: Km × 10) equilibrium dialysis (intrinsic binding constant Kb): scale not given here. The settings on record: for Site size: fit to McGhee and von Hippel equation; for aggregation in solution / binding affinity for DNA / binding curve type (cooperativity) / Enantioselectivity: in words; for binding affinity for DNA: comparative; for Km × 10) equilibrium dialysis (intrinsic binding constant Kb): 5 mM Tris, 50 mM NaCl, pH 7.5, standard deviation in parentheses; for Enantioselectivity: dialysate circular dichroism. As to the method:
Equilibrium Dialysis: Equlibrium dialysis of the reacemic metal complexes was perforemd against calf-thymus DNA using procedures described previously. (74) The buffer used was 5 mM Tris, 50 mM NaCl at pH 7.5. Samples were agitated on a shaker bath during equilibration which occurred after three to five days, as determined by control samples containing no DNA. After equilibration, volumes of liquid inside and outside the dialysis bags were determined (approximately 1 and 3 mls, respectively) and circular dichroism of the dialysate was meaxured on a Jasco J-40 spectropolarimeter. Final ruthenium concentration inside and outside the bags were measured by visible absorbance. Data anaylsis was performed on a VAX-780 using non-linear least squares analysis.
Equilibrium Dialysis: Equilibrium binding constants for the metal complexes with DNA may be determined classically by equilibrium dialysis. Calf thymus DNA was dialyzed against the series of mixed ligand complexes using a broad range of ruthenium concentrations. […] The results have been plotted according to Scatchard (88), where r is the ratio of bound metal to DNA-phosphate concentration, and cf is the concentration of free metal complex. The data were fit by non-linear least squares analysis to the McGhee and von Hippel equation (8945) governing random non-cooperative binding to a lattice,
where r is the ratio of bound concentration of ruthenium to the concentration of DNA-phosphate, cf is the concentration of ruthenium free in soltuion, Kb the intrinsic binding constant, and the integer /, which measures the degree of anti-cooperativeity, is the size of a binding site in base pairs. The curves shown reflect the best fit after variation of two parameters: the intrinsic binding constant, Kb, and binding stie size, /. For those complexes were cooperatively was observed, the equation (89) incorporating a cooperativity parameter was used.
Equilibrium dialysis experiments additionally offer the opportunity to examine any enantiomeric selectivities associated with binding. After dialysis of the DNA against the racemic mixture, optical activity observed in the dialysate refelects an enrichment in the dialysate in the less favored enantiomer. For most of the complexes, optical activity was found in the dialysate. Values for the extent of enantiomeric selectivity could not be quanitated in the absence of determinations of DE and assignments of absolute configuration. Assuming that the signs of the circular chroism in the ultraviolet ligand bands are the same for the these ligands as that for the parent phenanthroline complex, (90) we have assigned the absolute configuration of these complexes by comparison to spectra for enantiomers of Ru(phen)3^2+ and have compared levels of enantioselectivity qualitatively through measurements of circular dichroic intensity per rutheium bound. Based upon these assumptions, we find enantionmeric selectivities for the polyridyl complexes to reflect an enrichment in the isomer in the dialysate and the preferential binding of the isomer to the right-handed DNA. This observation is consistent with the preferential intercalation of isomers found earlier for Ru(phen)3^2+ in right-handed B-DNA. (63) We may also compare relative enantioselectivities for different ancillary ligands. […] The same comparison may be seen qualitatively between Ru(phen)2 DIP^2+ and Ru(bpy)2 DIP^2+.
(In equilibrium dialysis free small molecules cross a membrane that holds back macromolecules.)

The nature of data set [4]: Solubility in buffer. Type of data set: physicochemical. The conditions noted are these: for Solubilities in Buffer: chloride salts, 5 mM Tris, 50 mM NaCl, pH 7.5, 24 hrs., 25° C., SD in parentheses; for solubility: in words. The method, then:
Measurement of Solubilities: Solubilities of the compounds wre measured by preparing saturated solutions of metal complex in buffer (50mM NaCl, 5 mM Tris, pH 7.5) and allowng the suspensions to equilibrate for 24 hours at 25 C. After that time, the solutions were spun down in an Eppendorff microcentrifuge at 15,000 rev/min for 2 minutes and the supernatant was carefully removed by pipette. After dilution, the ruthenuim concentrattions were measured by UV-visible absorbance.

The subject of data set [5] is pBR322 DNA. Briefly: Unwinding of supercoiled pBR322 DNA (topoisomerase I assay). The conditions noted are these: for EC50: read-out: Unwinding concentration, needed to unwind 11 of 22 supercoils, [DNA] 47 μM for phi complexes, 31.5 μM others, 60 min.
Data set [6] has as its system calf thymus DNA. Briefly: Absorption titration with calf thymus DNA (half-reciprocal, hypochromism). The format is binding. The conditions noted are these: in words; for binding to DNA: absorption changes too small for Kb. The source says: In plots of [DNA]/(εA -εF) versus [DNA], Kb is given by the ratio of the slope to intercept.

In the case of `[Ru].c1cnc2c(c1)ccc1cccnc12.c1cnc2c(c1)ccc1cccnc12.c1cnc2c(c1)ccc1cccnc12` [Ru(phen)3^2+, reference compound], in data set [1], the “Emission Enchantment (I/Io)” value is reported as 1.87 I/Io. In addition, the “enantiomer selectively bound by B-form DNA” value in data set [2] is listed as “Δ-enantiomers”. This molecule yielded a Site size in data set [3] of 4 base pairs. The “Solubilities in Buffer” value in data set [4] is on record as 159. (5.3) mM. In data set [5], the Unwinding Angle is reported as 19 ° and the EC50 amounted to 9 µM. Besides, the “Unwinding Angle” value in data set [5] (per molecule of bound complex) came to 19 degrees.

With `N=C1C(=N)c2ccccc2-c2ccccc21.[Ru+2].c1cnc2c(c1)ccc1cccnc12.c1cnc2c(c1)ccc1cccnc12` [Ru(phen)2 (phi)^2+], in data set [6], the “hypochromism / absorption change on DNA addition” value (“hypochromism / absorption change” for short) is “hypochromism and a large red shift”. In data set [3], the Site size was 2-3 base pairs. Besides, the “intensity in circular dichroism per ruthenium bound” value in data set [3] (relative to Ru(bpy)2 phi^2+) is on record as “more than three times greater”. In data set [4], the “Solubilities in Buffer” value is listed as 0.17 (.01) mM. For the same molecule, in data set [5], the Unwinding Angle worked out at 26 ° and the EC50 stood at 1.2 µM. Moreover, the “Unwinding Angle” value in data set [5] (per molecule of bound complex) is reported as 26 degrees.

`[Ru+2].c1ccc(-c2ccnc3c2ccc2c(-c4ccccc4)ccnc23)cc1.c1ccc(-c2ccnc3c2ccc2c(-c4ccccc4)ccnc23)cc1.c1ccc(-c2ccnc3c2ccc2c(-c4ccccc4)ccnc23)cc1` [Ru(DIP)3^2+, reference compound]: the “enantiomer selectively bound by B-form DNA” value in data set [2] is given as “Δ-enantiomers”. Moreover, in data set [3], the aggregation in solution entry is reported as “extensive aggregation” and the “binding affinity for DNA” value is “appear to bind DNA more avidly”.

Turning to `[Ru+2].c1ccc(-c2ccnc3c2ccc2c(-c4ccccc4)ccnc23)cc1.c1cnc2c(c1)ccc1cccnc12.c1cnc2c(c1)ccc1cccnc12` [Ru(phen)2 (DIP)^2+], the “Emission Enchantment (I/Io)” value in data set [1] was determined as 2.06 I/Io. Also, in data set [6], the “hypochromism / absorption change” value is given as “greatest change in absorption”. Moreover, in data set [3], the Site size result was “cooperative”, the aggregation in solution result is recorded as “tend to agfregate in solution” and the “binding curve type (cooperativity)” value is reported as “cooperatiove binding”. For the same molecule, in data set [4], the “Solubilities in Buffer” value is reported as 9. (1.2) mM and the solubility entry is “only sparingly soluble in the buffer solution”. In data set [5], the EC50 was found to be 9 µM.

`[Ru+2].c1ccc(-c2ccccn2)nc1.c1ccc(-c2ccccn2)nc1.c1ccc(-c2ccccn2)nc1` [Ru(bpy)3^2+, reference compound]: the “Emission Enchantment (I/Io)” value in data set [1] came out at 1.06 I/Io. The intercalation result in data set [1] (in words) is listed as “neither intercalates nor surface-binds to the helix”. Besides, in data set [6], the “hypochromism / absorption change” value is reported as “litle hypochromic effect” and the “binding to DNA” value is listed as “bound very weakly”. In data set [3], the “Km × 10) equilibrium dialysis (intrinsic binding constant Kb)” value is reported as 0.7(.13) × 10 and the Site size is 6-12 base pairs. The “unwinding of the helix” value in data set [5] (in words) is “shows little significant unwinding of the helix”. In addition, the EC50 in data set [5] was found to be 650 µM.

As to `[Ru+2].c1ccc(-c2ccccn2)nc1.c1cnc2c(c1)ccc1cccnc12.c1cnc2c(c1)ccc1cccnc12` [Ru(phen)2 (bpy)^2+], in data set [1], the “Emission Enchantment (I/Io)” value is 1.43 I/Io. Besides, in data set [3], the Site size is on record as 5-7 base pairs. Also, the “Unwinding Angle” value in data set [5] (per molecule of bound complex) was determined as 18 degrees. In addition, the EC50 in data set [5] is 11 µM.

With `[Ru+2].c1ccc(-c2ccccn2)nc1.c1ccc(-c2ccccn2)nc1.c1cnc2c(c1)ccc1cccnc12` [Ru(bpy)2 (phen)^2+], the “Emission Enchantment (I/Io)” value in data set [1] was determined as 1.12 I/Io. Besides, in data set [6], the “hypochromism / absorption change” value is reported as “litle hypochromic effect” and the “binding to DNA” value was “bound very weakly”. Also, in data set [3], the “Km × 10) equilibrium dialysis (intrinsic binding constant Kb)” value is recorded as 0.7(.07) × 10 and the Site size is 10-14 base pairs. The EC50 in data set [5] is 69 µM.

As for `[Ru+2].c1ccc(-c2ccnc3c2ccc2c(-c4ccccc4)ccnc23)cc1.c1ccc(-c2ccnc3c2ccc2c(-c4ccccc4)ccnc23)cc1.c1cnc2c(c1)ccc1cccnc12` [Ru(DIP)2 (phen)^2+], in data set [1], the “Emission Enchantment (I/Io)” value came to 2.14 I/Io. The “hypochromism / absorption change” value in data set [6] is recorded as “greatest change in absorption”. Also, in data set [3], the Site size entry is reported as “cooperative”, the aggregation in solution entry is on record as “tend to agfregate in solution”, the “binding curve type (cooperativity)” value is “cooperatiove binding” and the “binding affinity for DNA” value is listed as “binding similar to that of Ru(phen2 DIP^2+”. The “Solubilities in Buffer” value in data set [4] is given as 0.18 (.01) mM. Further, in data set [4] (listed as Ru(DIP)2 (phen)2), the solubility entry is “only sparingly soluble in the buffer solution”. The solubility entry in data set [4] (listed as Ru(DIP)2)phen)^2+) was “too insoluble”.

As to `O=C1c2cccnc2-c2ncccc21.[Ru+2].c1cnc2c(c1)ccc1cccnc12.c1cnc2c(c1)ccc1cccnc12` [Ru(phen)2 (flone)^2+, [Ru(phen)2 (4,5-diazafuorene-9-one)]Cl2], the “binding to DNA” value in data set [6] is listed as “bound very weakly”. In data set [3], the Enantioselectivity entry is reported as “no enantiomeric discrimination is apparent”, the Site size is 9-12 base pairs and the “binding affinity for DNA” value was “indistinguishable from that for Ru(phen)2 bpy^2+”. Also, the Enantioselectivity result in data set [3] (listed as Ru(phen) (flone)Cl) is “none”. In addition, the “binding affinity for DNA” value in data set [3] (listed as Ru(phen)^2+2. flone) is “much lower than would be expected based upon their solvent accessible surfaces”. The “Solubilities in Buffer” value in data set [4] is reported as 60. (2.2) mM.

For `[Ru+2].c1ccc(-c2ccccn2)nc1.c1ccc(-c2ccccn2)nc1.c1ccc(-c2ccnc3c2ccc2c(-c4ccccc4)ccnc23)cc1` [Ru(bpy)2 (DIP)^2+], the “Emission Enchantment (I/Io)” value in data set [1] was 1.13 I/Io. In addition, the “binding to DNA” value in data set [6] was “bound very weakly”. Besides, in data set [3], the “Km × 10) equilibrium dialysis (intrinsic binding constant Kb)” value is listed as 1.7(.3) × 10 and the Site size is given as 12-18 base pairs. The EC50 in data set [5] came out at 170 µM.

The record behind these values is patent US5157032A, “Mixed ligand complexes and uses thereof as binding agents and probes to DNA” (The Trustees of Columbia University In The City of New York, priority 1990, dated 1992).
